The source of these data is PubChem BioAssay (NCI).

SMILES strings stand for the structures.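 Five concentrations, 48 hours, 96-well plates. GI50 is the concentration that inhibits growth by half. TGI marks complete inhibition of growth.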

What all share (test): NCI anticancer screen, dose series, 48 h
Experiment [1] relates to RPMI-8226 leukemia.
For experiment [2], the system named is SK-MEL-2 melanoma.
In experiment [3] the test system is HT29 colon.
In experiment [4] the test system is LOX IMVI melanoma.
For experiment [5], the system named is NCI/ADR-RES ovarian.
Experiment [6] concerns SR leukemia.
Experiment [7] has as its system ACHN renal.
The subject of experiment [8] is UO-31 renal.
For experiment [9], the system named is SW-620 colon.
For experiment [10], the system named is DU-145 prostate.

For the molecule `CC(=O)N(C(C)=O)n1c(Cc2ccc(C)cc2)nn(C(C)=O)c1=O`, the TGI in experiment [1], in experiment [2], in experiment [3], in [4], in [5] and in [6] was above 100 µM throughout. Moreover, the TGI in experiment [7], in experiment [8], in experiment [9] and in [10] was above 100 µM each time.

Take `COc1ccc(N=C2C(=Nc3ccc(OC)cc3)N(c3ccc(N(C)C)cc3)C(=S)N2c2ccc(OC)cc2)cc1`: the TGI in experiment [1], in experiment [2], in [3], in experiment [4], in experiment [5] and in experiment [6] was above 100 µM throughout. Further, the TGI in experiment [7], in experiment [8], in experiment [9] and in experiment [10] was above 100 µM each time.

Turning to `O=C1CS[C@@](CC(c2ccc(Cl)cc2)c2ccc(Cl)cc2)(c2ccc(Cl)cc2)N1`, the TGI in [1] is 35.6 µM; in [2], 87.6 µM; in experiment [3], above 100 µM; in experiment [4], 65.4 µM; in experiment [5], above 100 µM; in experiment [6], 26.3 µM. Moreover, the TGI in [7] was 89.4 µM; in experiment [8], above 100 µM; in experiment [9], above 100 µM; in experiment [10] it was above 100 µM.

Consider `CC1=CCC[C@H]2[C@](C)(CC3=CC(=O)C(Sc4ccccc4)=CC3=O)[C@@H](C)CC[C@]12C`, for which the GI50 in [1] is 20.2 µM; in [2], 19.9 µM; in [4] it was 13.6 µM. For the same molecule, the TGI in experiment [1] is 46.1 µM; in experiment [2], 56.1 µM; in experiment [4], 26.4 µM; in experiment [5], 32.5 µM; in [6], 48.3 µM; in experiment [7] it was 35.3 µM. Also, the TGI was 29.1 µM in experiment [8], 30.5 µM in experiment [9] and 47.4 µM in experiment [10].

Consider `CN(C)CCNC(=O)c1ccc(Cl)c2cc3ccccc3nc12`, for which the TGI in [1] stood at 3.9 µM; in experiment [2] it was 4.94 µM; in experiment [3], 4.9 µM; in experiment [4] it was 1.4 µM; in experiment [5], 5.65 µM; in [6], 3.03 µM. The TGI came out at 12.1 µM in experiment [7], 11 µM in experiment [8], 6.68 µM in experiment [9] and 6.2 µM in experiment [10].

With `O=C(O)CNC(=O)c1ccc2cc(C(=O)N3CC(CCl)c4ccc([N+](=O)[O-])cc43)[nH]c2c1` (centres undefined), the TGI in experiment [1], in experiment [2], in [3], in experiment [4], in [5] and in [6] was above 100 µM in each case. Further, the TGI in experiment [7], in experiment [8], in experiment [9] and in experiment [10] was above 100 µM each time.

Regarding `COC(=O)NC(Cc1ccccc1)NC(C)=O` (centres undefined), the TGI in [1], in experiment [2], in experiment [3], in experiment [4], in experiment [5] and in experiment [6] was above 100 µM in each case. Further, the TGI in experiment [7], in experiment [8], in experiment [9] and in [10] was above 100 µM in each case.

`NC(=Nc1ccccc1)c1ccccc1N`: the TGI in [1], in experiment [2], in [3], in [4], in [5] and in experiment [6] was above 100 µM throughout. The TGI in experiment [7], in [8], in experiment [9] and in [10] was above 100 µM each time.

`CC12ON(P(=O)(c3ccccc3)c3ccccc3)C(C)(c3ccccc31)c1ccccc12`: the TGI in experiment [1], in experiment [2], in experiment [3], in [4], in experiment [5] and in [6] was above 100 µM each time. Moreover, the TGI in [7], in experiment [8], in [9] and in [10] was above 100 µM throughout.

For `Cc1cc(N(CCC#N)CCC#N)ccc1/C=C1\SC(=S)NC1=O`, the TGI in [1], in experiment [2], in experiment [3], in experiment [4], in [5] and in experiment [6] was above 100 µM throughout. Moreover, the TGI in experiment [7], in [8], in [9] and in experiment [10] was above 100 µM throughout.

Consider `COP(=O)(O)C(N)Cc1c[nH]c2ccccc12` (centres undefined), for which the TGI in experiment [1], in experiment [2], in [3], in experiment [4], in experiment [5] and in experiment [6] was above 100 µM each time. In addition, the TGI in [7], in [8], in experiment [9] and in experiment [10] was above 100 µM throughout.

As to `COc1ccc(C2SCC(=O)N2NC(=O)C(C)Oc2ccccc2C)cc1` (centres undefined), the TGI in experiment [1], in [2], in experiment [3], in [4], in experiment [5] and in experiment [6] was above 100 µM each time. Also, the TGI in [7], in [8], in experiment [9] and in experiment [10] was above 100 µM each time.

As for `COC([C@@H](OC(=O)c1ccccc1)[C@H](OC(=O)c1ccccc1)C(O)COC(=O)c1ccccc1)n1cc(C)c(=O)[nH]c1=O` (some centres undefined), the TGI in [1] is above 100 µM; in experiment [2], 67.1 µM; in [3], 41.4 µM; in [4] it was above 100 µM; in experiment [5] it was above 100 µM; in experiment [6], above 100 µM. Besides, the TGI in experiment [7], in experiment [8], in [9] and in experiment [10] was above 100 µM each time.

For `Nc1nc(=O)n(C2OC(CO)C(O)C2O)c2ncc(-c3ccc(-c4ccccc4)cc3)nc12` (centres undefined), the TGI in [1], in experiment [2], in [3], in experiment [4], in experiment [5] and in experiment [6] was above 100 µM throughout. Besides, the TGI in experiment [7], in [8], in experiment [9] and in experiment [10] was above 100 µM each time.

For the molecule `CC12CCC(C(=Nc3cc(C(F)(F)F)cc(C(F)(F)F)c3)C1=O)C2(C)C` (centres undefined), the TGI in experiment [1] was 44.7 µM; in experiment [2], 51.2 µM; in experiment [3], above 100 µM; in experiment [4] it was 29.9 µM; in experiment [5], above 100 µM; in [6], 46.4 µM. Moreover, the TGI in experiment [7], in [8], in [9] and in experiment [10] was above 100 µM throughout.

Regarding `O=[N+]([O-])c1cccc(Cl)c1Oc1ccc(S(=O)(=O)/N=C(\NO)Nc2ccc(Cl)cc2)cc1`, the TGI came out at 27.8 µM in [1]; 29.6 µM in experiment [2]; 30.8 µM in [3]; 32.7 µM in experiment [4]; 50.7 µM in experiment [5]; 21.1 µM in experiment [6]. Besides, the TGI in experiment [7] is 27.5 µM; in experiment [8] it was 23.7 µM; in experiment [9], 30.3 µM; in experiment [10] it was 30 µM.

`COc1ccc2c(c1)CCN1CCCc3ccccc3C21` (centres undefined): the TGI in experiment [1] was 58.2 µM; in experiment [2], above 100 µM; in [3], above 100 µM; in experiment [4], 57.9 µM; in experiment [5], above 100 µM; in experiment [6], above 100 µM. Further, the TGI in experiment [7], in [8], in experiment [9] and in [10] was above 100 µM throughout.

Turning to `COc1cc(OC2OC(COC(=O)c3cc(O)c(O)c(O)c3)C(O)C(O)C2O)ccc1O` (centres undefined), the TGI in [1], in experiment [2], in experiment [3], in experiment [4], in [5] and in [6] was above 100 µM each time. The TGI in experiment [7], in experiment [8], in experiment [9] and in [10] was above 100 µM each time.

`Cc1cc(O)cc(O)c1C(=O)O[C@]1(C)C(=O)C=C2C=C(/C=C/C(=O)O)OC=C2C1=O`: the TGI in experiment [1] is above 100 µM; in [2], above 100 µM; in [3], above 100 µM; in experiment [4], above 100 µM; in experiment [5] it was above 100 µM; in [6], 99 µM. In addition, the TGI in experiment [7], in experiment [8], in [9] and in experiment [10] was above 100 µM throughout.

For the molecule `Cc1cc2oc(C)c(S(=O)(=O)NC(=O)Nc3ccc(Cl)cc3)c(=O)c2c(=O)o1`, the TGI in [1], in experiment [2], in experiment [3], in experiment [4], in experiment [5] and in experiment [6] was above 100 µM each time. The TGI in experiment [7], in experiment [8], in [9] and in experiment [10] was above 100 µM each time.

As for `N=c1oc2ccccc2cc1-c1nc2ccccc2c(=O)[nH]1`, the TGI in experiment [1], in [2], in experiment [3], in experiment [4], in experiment [5] and in experiment [6] was above 100 µM in each case. Further, the TGI in [7], in experiment [8], in [9] and in [10] was above 100 µM in each case.

Take `CCOC(=O)C(NC(=O)CC)(Nc1ccc(F)c(Cl)c1)C(F)(F)F` (centres undefined): the TGI in [1], in [2], in experiment [3], in experiment [4], in experiment [5] and in experiment [6] was above 100 µM throughout. Further, the TGI in experiment [7], in experiment [8], in [9] and in experiment [10] was above 100 µM throughout.

As to `COCC12CCC(OC)C34C5CC6(O)C(OC)CC(OC(C)=O)(C5C6OC(=O)c5ccccc5)C(C(OC)C13)C4N(C)C2` (centres undefined), the TGI in [1], in experiment [2], in [3], in [4], in [5] and in experiment [6] was above 100 µM each time. Also, the TGI in experiment [7], in experiment [8], in [9] and in [10] was above 100 µM each time.

Regarding `CCOC(=O)c1[nH]c2cccc3c2c1CC[C@H](NC(=O)C(F)(F)F)C3=O`, the TGI in [1], in experiment [2], in experiment [3], in experiment [4], in [5] and in [6] was above 100 µM each time. Also, the TGI in experiment [8], in experiment [9] and in [10] was above 100 µM each time.

As for `COC1=C2C=[N+](C)C3C(=C2C=CC1OC)Cc1cc2c(cc13)OCO2` (centres undefined), the TGI in experiment [1] is 27.1 µM; in [2] it was 29.6 µM; in experiment [3], 26.3 µM; in experiment [4], 39.6 µM; in experiment [5], above 100 µM; in experiment [6], 42 µM. In addition, the TGI was 26.6 µM in experiment [8], above 100 µM in experiment [9] and 27.5 µM in experiment [10].

`COC(=O)c1ccccc1C1=C([N+](=O)[O-])C(c2ccccc2)C(C#N)=C(N)O1` (centres undefined): the TGI in [1], in experiment [2], in experiment [3], in [4], in experiment [5] and in experiment [6] was above 100 µM each time. For the same molecule, the TGI in [7], in experiment [9] and in experiment [10] was above 100 µM in each case.
